Reference: patent US11578085B2, “Heterocycle-substituted bicyclic azole pesticides” (FMC CORPORATION, priority 2013, dated 2023)
Where two headings read alike, the source gives them in different places.

How the values were obtained:
Assay type in all cases: in vivo
[1] = system: green peach aphid (Myzus persicae (Sulzer)); test: Test C: control of green peach aphid on radish plant (spray, contact and/or systemic); settings: 144 h
Experimental: (§1) Test compounds were formulated using a solution containing 10% acetone, 90% water and 300 ppm X-77® Spreader Lo-Foam Formula non-ionic surfactant containing alkylarylpolyoxyethylene, free fatty acids, glycols and isopropanol (Loveland Industries, Inc. Greeley, Colo., USA). The formulated compounds were applied in 1 mL of liquid through a SUJ2 atomizer nozzle with 1/8 JJ custom body (Spraying Systems Co. Wheaton, Ill., USA) positioned 1.27 cm (0.5 inches) above the top of each test unit. Test compounds were sprayed at the rates indicated, and each test was replicated three times.
For evaluating control of green peach aphid (Myzus persicae (Sulzer)) through contact and/or systemic means, the test unit consisted of a small open container with a 12-15-day-old radish plant inside. This was pre-infested by placing on a leaf of the test plant 30-40 aphids on a piece of leaf excised from a culture plant (cut-leaf method). The aphids moved onto the test plant as the leaf piece desiccated. After pre-infestation, the soil of the test unit was covered with a layer of sand.
Test compounds were formulated and sprayed at 250 and/or 50 ppm. After spraying of the formulated test compound, each test unit was allowed to dry for 1 hour and then a black, screened cap was placed on top. The test units were held for 6 days in a growth chamber at 19-21° C. and 50-70% relative humidity. Each test unit was then visually assessed for insect mortality.

[2] = system: cotton melon aphid (Aphis gossypii (Glover)); test: Test D: control of cotton melon aphid on cotton plant (spray, contact and/or systemic); settings: 144 h, assessed after 6 days; for mortality at 50 ppm: sprayed at 50 ppm; for mortality at 250 ppm: sprayed at 250 ppm
Experimental: as §1
For evaluating control of cotton melon aphid (Aphis gossypii (Glover)) through contact and/or systemic means, the test unit consisted of a small open container with a 6-7-day-old cotton plant inside. This was pre-infested with 30-40 insects on a piece of leaf according to the cut-leaf method, and the soil of the test unit was covered with a layer of sand.
Test compounds were formulated and sprayed at 250 and/or 50 ppm. After spraying, the test units were maintained in a growth chamber for 6 days at 19° C. and 70% relative humidity. Each test unit was then visually assessed for insect mortality.

[3] = system: sweetpotato whitefly (Bemisia tabaci (Gennadius)); test: Test F: control of sweetpotato whitefly on cotton plant (spray, contact and/or systemic); settings: 312 h
Experimental: as §1
For evaluating control of the sweetpotato whitefly (Bemisia tabaci (Gennadius)) through contact and/or systemic means, the test unit consisted of a small open container with a 12-14-day-old cotton plant inside. Prior to the spray application, both cotyledons were removed from the plant, leaving one true leaf for the assay. Adult whiteflies were allowed to lay eggs on the plant and then were removed from the test unit. Cotton plants infested with at least 15 eggs were submitted to the test for spraying.
Test compounds were formulated and sprayed at 250 and/or 50 ppm. After spraying, the test units were allowed to dry for 1 hour. The cylinders were then removed, and the units were taken to a growth chamber and held for 13 days at 28° C. and 50-70% relative humidity. Each test unit was then visually assessed for insect mortality.

[4] = system: potato leafhopper (Empoasca fabae (Harris)); test: Test B: control of potato leafhopper on Soleil bean plant (spray, contact and/or systemic); settings: 144 h, sprayed at 250 ppm, assessed after 6 days
Experimental: as §1
For evaluating control of potato leafhopper (Empoasca fabae (Harris)) through contact and/or systemic means, the test unit consisted of a small open container with a 5-6-day-old Soleil bean plant (primary leaves emerged) inside. White sand was added to the top of the soil, and one of the primary leaves was excised prior to application of the test compound.
Test compounds were formulated and sprayed at 250 and/or 50 ppm. After spraying of the formulated test compound, the test units were allowed to dry for 1 hour before they were post-infested with 5 potato leafhoppers (18-to-21-day-old adults). […] Each test unit was then visually assessed for insect mortality.

[5] = sprayed at 50 ppm, assessed after 6 days, read-out: mortality
[6] = sprayed at 250 ppm, assessed after 6 days, read-out: mortality
[7] = sprayed at 250 ppm, assessed after 13 days, read-out: mortality

| Structure (SMILES) | mortality at 50 ppm [1, 5] [%] | mortality at 250 ppm [1, 6] [%] | mortality at 50 ppm [2] [%] | mortality at 250 ppm [2] [%] | mortality at 250 ppm [3, 7] [%] | mortality at 50 ppm [1] [%] | mortality at 250 ppm [1] [%] | mortality at 250 ppm [3] [%] | mortality at 250 ppm [4] [%] |
| --- | --- | --- | --- | --- | --- | --- | --- | --- | --- |
| CC(C)NC(=O)c1cccc2nn(-c3cccnc3)cc12 [Compound 8, N-(1-methylethyl)-2-(3-pyridinyl)-2H-indazole-4-carboxamide] | ≥ 80 | ≥ 80 | ≥ 80 | ≥ 80 | ≥ 50 | – | – | – | – |
| O=C(NC1CC1)c1cccc2nn(-c3cccnc3)cc12 [Compound 14, N-cyclopropyl-2-(3-pyridinyl)-2H-indazole-4-carboxamide] | ≥ 80 | ≥ 80 | ≥ 80 | ≥ 80 | – | – | – | – | – |
| O=C(NC1CCCCC1)c1cccc2nn(-c3cccnc3)cc12 [Compound 16, N-cyclohexyl-2-(3-pyridinyl)-2H-indazole-4-carboxamide] | ≥ 80 | ≥ 80 | ≥ 80 | ≥ 80 | – | – | – | – | – |
| O=C(NCC(F)(F)F)c1cccc2nn(-c3cccnc3)cc12 [Compound 19, 2-(3-pyridinyl)-N-(2,2,2-trifluoroethyl)-2H-indazole-4-carboxamide] | ≥ 80 | ≥ 80 | ≥ 80 | ≥ 80 | – | – | – | – | – |
| O=C(NCC1CCCO1)c1ccc2nn(-c3cccnc3)cc2c1 (stereo not shown) [Compound 41, 2-(3-pyridinyl)-N-[(tetrahydro-2-furanyl)methyl]-2H-indazole-5-carboxamide] | ≥ 80 | ≥ 80 | ≥ 80 | ≥ 80 | – | – | – | – | – |
| COC(=O)NNC(=O)c1ccc2nn(-c3cccnc3)cc2c1 [Compound 42, methyl 2-[[2-(3-pyridinyl)-2H-indazol-5-yl]carbonyl]hydrazinecarboxylate] | ≥ 80 | ≥ 80 | ≥ 80 | – | ≥ 50 | – | – | – | – |
| O=C(NCC1CC1(F)F)c1ccc2nn(-c3cccnc3)cc2c1 (stereo not shown) [Compound 51, N-[(2,2-difluorocyclopropyl)methyl]-2-(3-pyridinyl)-2H-indazole-5-carboxamide] | ≥ 80 | ≥ 80 | ≥ 80 | ≥ 80 | – | – | – | – | – |
| CC(F)(F)CNC(=O)c1ccc2nn(-c3cccnc3)cc2c1 [Compound 54, N-(2,2-difluoropropyl)-2-(3-pyridinyl)-2H-indazole-5-carboxamide] | ≥ 80 | ≥ 80 | ≥ 80 | ≥ 80 | – | – | – | – | – |
| O=C(NCc1ncccn1)c1ccc2nn(-c3cccnc3)cc2c1 [Compound 55, 2-(3-pyridinyl)-N-(2-pyrimidinylmethyl)-2H-indazole-5-carboxamide] | ≥ 80 | ≥ 80 | ≥ 80 | ≥ 80 | – | – | – | – | – |
| Cc1cnc(CNC(=O)c2ccc3nn(-c4cccnc4)cc3c2)cn1 [Compound 76, N-[(5-methyl-2-pyrazinyl)methyl]-2-(3-pyridinyl)-2H-indazole-5-carboxamide] | ≥ 80 | ≥ 80 | ≥ 80 | – | – | – | – | – | – |
| CSCCNC(=O)c1cccc2nc(-c3cccnc3)sc12 [Compound 84, N-[2-(methylthio)ethyl]-2-(3-pyridinyl)-7-benzothiazolecarboxamide] | ≥ 80 | ≥ 80 | – | – | – | – | – | – | – |
| O=C(NCC1CCCO1)c1ccc2nn(-c3ccc[n+]([O-])c3)cc2c1 (stereo not shown) [Compound 462] | ≥ 80 | ≥ 80 | – | ≥ 80 | – | – | – | – | – |
| O=C(NCCCl)c1ccc2nn(-c3cccnc3)cc2c1 [Compound 463] | – | – | – | – | – | ≥ 80 | ≥ 80 | ≥ 50 | – |
| O=C(NCC(F)(F)F)c1cccc2nn(-c3ccc[n+]([O-])c3)cc12 [Compound 466] | – | – | – | – | – | – | – | – | ≥ 80 |
